Data set [1] in a line: Inhibition of Mycobacterium tuberculosis InhA.
Data set [2] can be described thus: Cytotoxicity against MDCK cells assessed as cell viability after 4 to 6 days by microscopic analysis. The format is cell-based, Canis lupus familiaris. Particulars: dog.
The test system of data set [3] is Mycobacterium tuberculosis. The data set is described as follows: Antimycobacterial activity against Mycobacterium tuberculosis H37Rv CNCTC My 331/88 incubated for 10 to 14 days by microplate alamar blue assay. The data set is classed as functional. (In general: Alamar Blue is a resazurin reagent that responds to reducing activity.)
For data set [4], the system named is Staphylococcus aureus. In words: Antibacterial activity against Staphylococcus aureus after 24 to 48 hrs by broth microdilution method. The format is functional. Background: In broth dilution the organism is exposed to a series of concentrations in liquid medium.
The subject of data set [5] is Klebsiella pneumoniae. The data set is described as follows: Antibacterial activity against Klebsiella pneumoniae D 11750/08 after 24 to 48 hrs by broth microdilution method. The data set is classed as functional.
Data set [6] deals with Escherichia coli. In words: Antibacterial activity against Escherichia coli CCM 4517 after 24 to 48 hrs by broth microdilution method. The data set is classed as functional.
The subject of data set [7] is Pichia kudriavzevii. In words: Antifungal activity against Candida krusei E28 after 24 to 48 hrs by broth microdilution method. The data set is classed as functional.
Data set [8] deals with Candida tropicalis. The data set is described as follows: Antifungal activity against Candida tropicalis 156 after 24 to 48 hrs by broth microdilution method. The format is functional.
Data set [9] can be described thus: Cytotoxicity against African green monkey Vero cells assessed as cell viability after 4 to 6 days by microscopic analysis. The data set is classed as cell-based. Particulars: chlorocebus sabaeus.
Data set [10] deals with Aspergillus fumigatus. The data set is described as follows: Antifungal activity against Aspergillus fumigatus 231 after 24 to 48 hrs by broth microdilution method. The format is functional.
The subject of data set [11] is Mycobacterium avium. In words: Antimycobacterial activity against Mycobacterium avium CNCTC My 80/72 after 5 days by microplate alamar blue assay. The format is functional. The note with it: CNCTC My 80/72, 120 h.
Data set [12] has as its system Influenza A virus. The data set is described as follows: Antiviral activity against Influenza A virus (A/Puerto Rico/8/(H1N1)) assessed as inhibition of virus-induced cytopathic effect after 3 to 6 days by formazan-based MTS assay. The data set is classed as functional, organism-based.
In data set [13] the test system is Mycobacterium kansasii. The data set is described as follows: Antimycobacterial activity against Mycobacterium kansasii CNCTC My 235/80 incubated for 5 to 7 days by microplate alamar blue assay. The format is functional.
Data set [14] is described as follows: Cytotoxicity against MDCK cells assessed as cell viability after 4 to 6 days by formazan-based MTS assay. The arrangement: species or system Canis lupus familiaris. The note with it: dog. Background: Tetrazolium assays rely on reduction of a dye to a coloured formazan, in cell work by metabolically active cells.
In data set [15] the test system is Trichosporon asahii. In words: Antifungal activity against Trichosporon asahii 1188 after 24 to 48 hrs by broth microdilution method. The format is functional.
The test system of data set [16] is Pseudomonas aeruginosa. The data set is described as follows: Antibacterial activity against Pseudomonas aeruginosa CCM 1961 after 24 to 48 hrs by broth microdilution method. The format is functional.
For data set [17], the system named is Klebsiella pneumoniae. The data set is described as follows: Antibacterial activity against ESBL positive Klebsiella pneumoniae J 14368/08 after 24 to 48 hrs by broth microdilution method. The format is functional.
A short description of data set [18]: Cytotoxicity against human HeLa cells assessed as cell viability after 4 to 6 days by microscopic analysis. The data set is classed as cell-based.
Data set [19] is described as follows: Lipophilicity, logK of the compound by RP-HPLC analysis. The data set is classed as physicochemical.
Data set [20] can be described thus: Cytotoxicity against HEL cells assessed as cell viability after 4 to 6 days by microscopic analysis. The note with it: human. The format is cell-based.
Data set [21] can be described thus: Cytotoxicity against CRFK cells assessed as cell viability after 4 to 6 days by formazan-based MTS assay. The arrangement: species or system Felis catus. Particulars: cat.
In data set [22] the test system is Influenza A virus. The data set is described as follows: Antiviral activity against Influenza A virus (A/Puerto Rico/8/(H1N1)) assessed as inhibition of virus-induced cytopathic effect after 3 to 6 days by microscopic analysis. The data set is classed as functional, organism-based.
Data set [23] concerns Candida albicans. The data set is described as follows: Antifungal activity against Candida albicans ATCC 44859 after 24 to 48 hrs by broth microdilution method. The format is functional.
Data set [24] has as its system Mycobacterium tuberculosis. In words: Potency index, ratio of pyrazinamide MIC to compound MIC for Mycobacterium tuberculosis H37Rv CNCTC My 331/88. The format is functional.
For data set [25], the system named is Nakaseomyces glabratus. The data set is described as follows: Antifungal activity against Candida glabrata 20/I after 24 to 48 hrs by broth microdilution method. The format is functional.
In data set [26] the test system is Staphylococcus aureus. The data set is described as follows: Antibacterial activity against methicillin-resistant Staphylococcus aureus H 5996/08 after 24 to 48 hrs by broth microdilution method. The format is functional, organism-based.
Data set [27] relates to Trichophyton mentagrophytes. In words: Antifungal activity against Trichophyton mentagrophytes 445 after 72 to 120 hrs by broth microdilution method. The data set is classed as functional.
The test system of data set [28] is Mycobacterium avium. In words: Antimycobacterial activity against Mycobacterium avium CNCTC My 152/73 after 5 days by microplate alamar blue assay. The data set is classed as functional. The note with it: CNCTC My 152/73, 120 h.
Data set [29] deals with Lichtheimia corymbifera. In words: Antifungal activity against Lichtheimia corymbifera 272 after 24 to 48 hrs by broth microdilution method. The format is functional.
Data set [30] has as its system Respiratory syncytial virus. In words: Antiviral activity against Respiratory syncytial virus infecetd in human HeLa cells assessed as inhibition of virus replication after 3 to 6 days. The data set is classed as functional, organism-based.
The subject of data set [31] is Mycobacterium tuberculosis. In words: Inhibition of mycolic acid synthesis in [1,2-14C]-acetate-labelled Mycobacterium tuberculosis H37Ra at 5 ug/ml preincubated for 20 hrs followed by radiolabelling measured after 24 hrs by autoradiography. The data set is classed as functional, organism-based.

Consider three compounds from ChEMBL document CHEMBL3745676, “Alkylamino derivatives of N-benzylpyrazine-2-carboxamide: synthesis and antimycobacterial evaluation” (Medchemcomm, 2015).

pEC50, pIC50: −log10 of the molar value. ≈ marks a conversion by molar mass, not a printed value. Calls of active or inactive are those of the source. No cut-off for these calls is given here.

For `CCCCCCCCc1ccc(Oc2ccccc2)c(O)c1`, the pIC50 – broadly, −log10 of the IC50, conventionally taken in molar units – in [1] was 8.30.
Turning to `CCCCCCCCNc1cncc(C(=O)NCc2ccccc2)n1`, the MCC was 4 µM in [2], above 100 µM in data set [9], above 100 µM in data set [18] and above 100 µM in data set [20]. The MIC – broadly, the least concentration at which growth counts as inhibited – is 9.2 µM (≈ 3.13 µg/mL) in [3]; above 500 µM in data set [7]; above 500 µM in data set [8]; above 500 µM in [10]; above 100 µg/mL in data set [11]; 18 µM in [13]. The MIC in [15] is above 500 µM; in data set [23], above 500 µM; in [25] it was above 500 µM; in data set [27] it was above 500 µM; in [28], above 100 µg/mL; in [29], above 500 µM. Also, the MIC95 in data set [4] is 3.9 µM (≈ 1.33 µg/mL); in [5] it was above 500 µM; in [6], above 500 µM; in data set [16] it was above 500 µM; in data set [17], above 500 µM. The pEC50 in data set [12] and in [22] was below 4.00 throughout. Further, the results for the CC50 in [14] and in data set [21] were 1.3 µM and above 100 µM, respectively. The “log K” value in data set [19] was found to be 1.431. In [24], the Ratio entry is “<=20”. The outcome in [26] was inactive.
Consider `CCCCCCCCNc1cnc(C(=O)NCc2ccccc2)cn1`, for which the MCC was at least 20 µM in [2], 20 µM in [9], 100 µM in data set [18] and 100 µM in [20]. The MIC is 4.6 µM (≈ 1.57 µg/mL) in data set [3]; above 500 µM in [7]; above 500 µM in [8]; above 500 µM in data set [10]; above 100 µg/mL in data set [11]; above 100 µg/mL in data set [13]. For the same compound, the MIC is above 500 µM in data set [15]; above 500 µM in [23]; above 500 µM in data set [25]; above 500 µM in data set [27]; above 100 µg/mL in data set [28]; above 500 µM in data set [29]. Moreover, the pEC50 (in general, −log10 of the EC50, conventionally taken in molar units) is 5.05 in data set [30], below 4.00 in data set [12] and 5.96 in [22]. Also, the inhibition entry in [31] was “inactive”. For the same compound, the MIC95 in data set [5], in data set [6], in data set [16] and in data set [17] was above 500 µM in each case. For the same compound, the results for the CC50 in data set [14] and in data set [21] were 62 µM and 28 µM, respectively. For the same compound, in data set [19], the “log K” value was 1.312. In addition, the Ratio result in data set [24] is on record as “<=20”.
